Here are results for 23 compounds from patent US10351561B2, “Pyrazolo[3,4-b]pyridines and imidazo[1,5-b]pyridazines as PDE1 inhibitors” (H. Lundbeck A/S, priority 2016, dated 2019).

What all share (assay type): biochemical
Settings in all cases: 15 nM tritium labelled cAMP, 1 hr at room temperature, SPA beads

One assay concerns the target PDE1A (Homo sapiens, UniProt P54750). Kind of assay: PDE1 inhibition assay (PDE1A), SPA with tritium labelled cAMP. The method, then:
(§1) PDE1A, PDE1B and PDE1C assays were performed as follows: the assays were performed in 60 μL samples containing a fixed amount of the PDE1 enzyme (sufficient to convert 20-25% of the cyclic nucleotide substrate), a buffer (50 mM HEPES (4-(2-hydroxyethyl)-1-piperazineethanesulfonic acid) pH 7.6; 10 mM MgCl2; 0.02% Tween20), 0.1 mg/ml BSA (bovine serum albumin), 15 nM tritium labelled cAMP and varying amounts of inhibitors. Reactions were initiated by addition of the cyclic nucleotide substrate, and reactions were allowed to proceed for 1 hr at room temperature before being terminated through mixing with 20 μL (0.2 mg) yttrium silicate SPA beads (PerkinElmer). The beads were allowed to settle for 1 hr in the dark before the plates were counted in a Wallac 1450 Microbeta counter. The measured signals were converted to activity relative to an uninhibited control (100%) and IC50 values were calculated using XIFit (model 205, IDBS).

Another assay concerns the target PDE1B (Homo sapiens, UniProt Q01064). Kind of assay: PDE1 inhibition assay (PDE1B), SPA with tritium labelled cAMP. The method, then: Reactions were initiated by addition of the cyclic nucleotide substrate, and reactions were allowed to proceed for 1 hr at room temperature before being terminated through mixing with 20 μL (0.2 mg) yttrium silicate SPA beads (PerkinElmer).

In a further assay the target is PDE1C (Homo sapiens, UniProt Q14123). As to the kind of experiment: PDE1 inhibition assay (PDE1C), SPA with tritium labelled cAMP. The method, then: as §1

Where two headings read alike, the source gives them in different places.

Broadly, the IC50 is the concentration that gives 50% inhibition.

PDE1C, sequence (Q14123 whole entry): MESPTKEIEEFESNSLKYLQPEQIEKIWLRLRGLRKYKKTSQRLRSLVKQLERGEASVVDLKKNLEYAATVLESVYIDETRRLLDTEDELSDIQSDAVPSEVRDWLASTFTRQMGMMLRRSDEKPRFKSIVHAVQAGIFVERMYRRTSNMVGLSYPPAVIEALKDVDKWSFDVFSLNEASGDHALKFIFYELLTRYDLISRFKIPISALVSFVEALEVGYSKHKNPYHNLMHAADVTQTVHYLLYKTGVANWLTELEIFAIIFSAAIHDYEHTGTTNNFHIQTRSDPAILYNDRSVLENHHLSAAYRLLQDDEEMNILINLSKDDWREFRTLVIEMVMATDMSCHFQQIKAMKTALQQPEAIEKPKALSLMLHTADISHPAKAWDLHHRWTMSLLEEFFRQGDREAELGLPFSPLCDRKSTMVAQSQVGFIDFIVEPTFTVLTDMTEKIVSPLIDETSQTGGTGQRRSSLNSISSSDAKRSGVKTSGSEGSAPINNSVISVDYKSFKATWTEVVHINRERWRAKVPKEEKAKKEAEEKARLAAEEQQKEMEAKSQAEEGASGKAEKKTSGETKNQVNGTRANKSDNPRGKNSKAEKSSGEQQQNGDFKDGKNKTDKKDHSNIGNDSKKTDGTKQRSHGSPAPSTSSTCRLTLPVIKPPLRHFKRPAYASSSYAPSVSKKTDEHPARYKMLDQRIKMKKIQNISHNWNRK
PDE1A, sequence (P54750 whole entry): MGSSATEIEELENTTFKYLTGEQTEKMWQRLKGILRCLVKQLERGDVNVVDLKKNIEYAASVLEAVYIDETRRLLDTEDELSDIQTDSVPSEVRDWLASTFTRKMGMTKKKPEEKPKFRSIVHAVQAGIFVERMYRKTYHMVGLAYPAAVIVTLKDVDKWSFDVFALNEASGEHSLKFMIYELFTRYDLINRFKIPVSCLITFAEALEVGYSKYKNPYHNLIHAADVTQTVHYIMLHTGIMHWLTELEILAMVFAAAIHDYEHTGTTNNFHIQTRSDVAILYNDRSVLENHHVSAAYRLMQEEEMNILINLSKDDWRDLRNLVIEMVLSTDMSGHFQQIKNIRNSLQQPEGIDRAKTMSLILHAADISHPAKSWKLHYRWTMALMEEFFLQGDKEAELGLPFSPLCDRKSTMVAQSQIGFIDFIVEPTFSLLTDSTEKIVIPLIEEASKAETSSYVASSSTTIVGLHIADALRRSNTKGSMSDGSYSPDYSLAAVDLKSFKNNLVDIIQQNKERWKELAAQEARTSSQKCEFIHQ
PDE1B, sequence (Q01064 whole entry): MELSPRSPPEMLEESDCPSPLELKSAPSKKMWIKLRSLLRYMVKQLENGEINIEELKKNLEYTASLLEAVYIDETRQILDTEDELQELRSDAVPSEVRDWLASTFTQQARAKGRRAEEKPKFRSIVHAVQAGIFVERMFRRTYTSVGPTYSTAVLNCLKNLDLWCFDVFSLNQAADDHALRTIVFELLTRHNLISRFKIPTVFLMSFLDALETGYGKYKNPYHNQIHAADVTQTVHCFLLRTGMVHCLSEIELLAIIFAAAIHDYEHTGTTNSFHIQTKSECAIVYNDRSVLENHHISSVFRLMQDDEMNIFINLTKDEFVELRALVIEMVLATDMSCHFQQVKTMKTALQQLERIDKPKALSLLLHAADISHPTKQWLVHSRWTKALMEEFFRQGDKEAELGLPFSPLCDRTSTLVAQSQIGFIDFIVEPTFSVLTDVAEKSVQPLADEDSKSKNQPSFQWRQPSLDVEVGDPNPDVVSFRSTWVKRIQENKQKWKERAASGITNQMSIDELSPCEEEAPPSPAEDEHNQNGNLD

For `Cc1coc(-c2cc(NCc3ncn(C)n3)c3c(C(C)C)nn(C)c3n2)n1` [Example 59, 3-isopropyl-1-methyl-N-((1-methyl-1H-1,2,4-triazol-3-yl)methyl)-6-(4-methyloxazol-2-yl)-1H-pyrazolo[3,4-b]pyridin-4-amine], the IC50 on PDE1A came to 99 nM; against PDE1B (PDE1B, IC50 (nM)), 14 nM; on PDE1C it was 67 nM.
Turning to `CCOc1ncccc1-c1cc(NCc2ncn(C)n2)c2c(C(C)CC)nc(C)n2n1` (single isomer, unassigned; (-)) [Example 49, (−)-2-(2-ethoxy-3-pyridyl)-7-methyl-N-[(1-methyl-1,2,4-triazol-3-yl)methyl]-5-[1-methylpropyl]imidazo[1,5-b]pyridazin-4-amine], the IC50 at PDE1A was determined as 14 nM; on PDE1B (read-out: PDE1B, IC50), 1.4 nM; on PDE1C it was 7.6 nM.
The corresponding values for `CCOc1ncccc1-c1cc(NCc2cnn(C)c2)c2c(C(C)CC)nc(C)n2n1` (single isomer, unassigned; (+)) [Example 48, (+)-2-(2-ethoxy-3-pyridyl)-7-methyl-N-[(1-methylpyrazol-4-yl)methyl]-5-[1-methylpropyl]imidazo[1,5-b]pyridazin-4-amine] are 5.8 nM, 0.64 nM and 4.9 nM.
`CCOc1ncccc1-c1cc(NCc2nc(C)no2)c2c(C(C)C)nc(C)n2n1` [Example 46, 2-(2-ethoxy-3-pyridyl)-5-isopropyl-7-methyl-N-[(3-methyl-1,2,4-oxadiazol-5-yl)methyl]imidazo[1,5-b]pyridazin-4-amine]: the IC50 against PDE1A was found to be 21 nM; at PDE1B (read-out: PDE1B, IC50) it was 4.1 nM; against PDE1C, 14 nM.
Taken in the same sequence, the figures for `CCOc1ncccc1-c1cc(NCc2noc(C)n2)c2c(C(C)C)nn(C)c2n1` [Example 5, 6-(2-ethoxy-3-pyridyl)-3-isopropyl-1-methyl-N-[(5-methyl-1,2,4-oxadiazol-3-yl)methyl]pyrazolo[3,4-b]pyridin-4-amine] were 8.9 nM, 1.1 nM and 19 nM.
The corresponding values for `CCOc1ncccc1-c1cc(NCc2cnc(C)s2)c2c(C(C)C)nn(C)c2n1` [Example 28, 6-(2-ethoxy-3-pyridyl)-3-isopropyl-1-methyl-N-[(2-methylthiazol-5-yl)methyl]pyrazolo[3,4-b]pyridin-4-amine] are 14 nM, 4.4 nM and 13 nM.
Taken in the same sequence, the figures for `CCOc1ncccc1-c1cc(NCc2ncccn2)c2c(C(C)C)nc(C)n2n1` [Example 75, 2-(2-ethoxy-3-pyridyl)-5-isopropyl-7-methyl-N-(pyrimidin-2-ylmethyl)imidazo[1,5-b]pyridazin-4-amine] were 11 nM, 0.13 nM and 24 nM.
As for `CCCOc1ncccc1-c1cc(NCc2cnn(C)c2)c2c(C(C)C)nc(C)n2n1` [Example 71, 5-isopropyl-7-methyl-N-[(1-methylpyrazol-4-yl)methyl]-2-(2-propoxy-3-pyridyl)imidazo[1,5-b]pyridazin-4-amine], the IC50 is 3.3 nM on PDE1A; 1 nM at PDE1B (read-out: PDE1B, IC50); 7 nM on PDE1C.
The corresponding values for `CCOc1ncccc1-c1cc(NCc2cn(C)cn2)c2c(C(C)C)nc(C)n2n1` [Example 8, 2-(2-ethoxy-3-pyridyl)-5-isopropyl-7-methyl-N-[(1-methylimidazol-4-yl)methyl]imidazo[1,5-b]pyridazin-4-amine] are 2.4 nM, 0.22 nM and 2.6 nM.
`CCOc1ncccc1-c1cc(NCc2cc[nH]n2)c2c(C(C)CC)nc(C)n2n1` (single isomer, unassigned; (-)) [Example 52, (−)-2-(2-ethoxy-3-pyridyl)-7-methyl-N-(1H-pyrazol-3-ylmethyl)-5-[1-methylpropyl]imidazo[1,5-b]pyridazin-4-amine]: the half-maximal inhibitory concentration (IC50) against PDE1A is 12 nM; at PDE1B (read-out: PDE1B, IC50) it was 0.65 nM; at PDE1C it was 6.1 nM.
Take `CCOc1nnccc1-c1cc(NCc2ncn(C)n2)c2c(C(C)C)nn(C)c2n1` [Example 66, 6-(3-ethoxypyridazin-4-yl)-3-isopropyl-1-methyl-N-[(1-methyl-1,2,4-triazol-3-yl)methyl]pyrazolo[3,4-b]pyridin-4-amine]: the 50% inhibitory concentration (IC50) at PDE1A came out at 27 nM; at PDE1B (read-out: PDE1B, IC50) it was 3.7 nM; on PDE1C, 39 nM.
Taken in the same sequence, the figures for `COc1ncccc1-c1cc(NCc2ncn(C)n2)c2c(C(C)C)nn(C)c2n1` [Example 55, 3-isopropyl-6-(2-methoxy-3-pyridyl)-1-methyl-N-[(1-methyl-1,2,4-triazol-3-yl)methyl]pyrazolo[3,4-b]pyridin-4-amine] were 130 nM, 30 nM and 45 nM.
The corresponding values for `CCOc1ncccc1-c1cc(NCc2ccnc(OC)c2)c2c(C(C)C)nc(C)n2n1` [Example 15, 2-(2-ethoxy-3-pyridyl)-5-isopropyl-N-[(2-methoxy-4-pyridyl)methyl]-7-methyl-imidazo[1,5-b]pyridazin-4-amine] are 7.3 nM, 1.7 nM and 9 nM.
The corresponding values for `CCOc1ncccc1-c1cc(NCc2cnc(C)s2)c2c(C(C)C)nc(C)n2n1` [Example 17, 2-(2-ethoxy-3-pyridyl)-5-isopropyl-7-methyl-N-[(2-methylthiazol-5-yl)methyl]imidazo[1,5-b]pyridazin-4-amine] are 6.1 nM, 1.5 nM and 5.7 nM.
`CCOc1ncccc1-c1cc(NCc2coc(C)n2)c2c(C(C)C)nc(C)n2n1` [Example 9, 2-(2-ethoxy-3-pyridyl)-5-isopropyl-7-methyl-N-[(2-methyloxazol-4-yl)methyl]imidazo[1,5-b]pyridazin-4-amine]: the IC50 on PDE1A was 30 nM; on PDE1B (read-out: PDE1B, IC50), 4.3 nM; on PDE1C, 29 nM.
The corresponding values for `CC(C)c1nn(C)c2nc(-c3cccn(C)c3=O)cc(NCc3ncn(C)n3)c12` [Example 56, 3-(3-isopropyl-1-methyl-4-(((1-methyl-1H-1,2,4-triazol-3-yl)methyl)amino)-1H-pyrazolo[3,4-b]pyridin-6-yl)-1-methylpyridin-2(1H)-one] are 290 nM, 52 nM and 480 nM.
Taken in the same sequence, the figures for `Cc1nc(C(C)C)c2c(NCc3ncn(C)n3)cc(-c3cccc4ncoc34)nn12` [Example 81, 2-(1,3-benzoxazol-7-yl)-5-isopropyl-7-methyl-N-[(1-methyl-1,2,4-triazol-3-yl)methyl]imidazo[1,5-b]pyridazin-4-amine] were 3.8 nM, 0.29 nM and 2.5 nM.
The corresponding values for `CCOc1ncccc1-c1cc(NCc2cc[nH]n2)c2c(C(C)CC)nc(C)n2n1` (single isomer, unassigned; (+)) [Example 51, (+)-2-(2-ethoxy-3-pyridyl)-7-methyl-N-(1H-pyrazol-3-ylmethyl)-5-[1-methylpropyl]imidazo[1,5-b]pyridazin-4-amine] are 57 nM, 4.3 nM and 31 nM.
In the case of `CCOc1ncccc1-c1cc(NCc2ccccn2)c2c(C(C)C)nn(C)c2n1` [Example 40, 6-(2-ethoxy-3-pyridyl)-3-isopropyl-1-methyl-N-(2-pyridylmethyl)pyrazolo[3,4-b]pyridin-4-amine], the IC50 against PDE1A is 68 nM; at PDE1B (read-out: PDE1B, IC50), 8.9 nM; against PDE1C, 82 nM.
Taken in the same sequence, the figures for `CCOc1ncccc1-c1cc(NCc2nnc(C)o2)c2c(C(C)C)nc(C)n2n1` [Example 45, 2-(2-ethoxy-3-pyridyl)-5-isopropyl-7-methyl-N-[(5-methyl-1,3,4-oxadiazol-2-yl)methyl]imidazo[1,5-b]pyridazin-4-amine] were 42 nM, 7.8 nM and 37 nM.
The corresponding values for `CCOc1ncccc1-c1cc(NCc2ncon2)c2c(C(C)C)nc(C)n2n1` [Example 43, 2-(2-ethoxy-3-pyridyl)-5-isopropyl-7-methyl-N-(1,2,4-oxadiazol-3-ylmethyl)imidazo[1,5-b]pyridazin-4-amine] are 40 nM, 5.8 nM and 34 nM.
The corresponding values for `CCOc1ncccc1-c1cc(NCc2ccn(C)n2)c2c(C(C)C)nn(C)c2n1` [Example 21, 6-(2-ethoxy-3-pyridyl)-3-isopropyl-1-methyl-N-[(1-methylpyrazol-3-yl)methyl]pyrazolo[3,4-b]pyridin-4-amine] are 30 nM, 5.3 nM and 36 nM.
As for `CCOc1ncccc1-c1cc(NCc2ncccn2)c2c(C(C)C)nn(C)c2n1` [Example 36, 6-(2-ethoxy-3-pyridyl)-3-isopropyl-1-methyl-N-(pyrimidin-2-ylmethyl)pyrazolo[3,4-b]pyridin-4-amine], the IC50 at PDE1A was found to be 50 nM; at PDE1B (read-out: PDE1B, IC50) it was 4 nM; against PDE1C, 77 nM.
